From publication PMC3592886, “Utilization of Quantitative In Vivo Pharmacology Approaches to Assess Combination Effects of Everolimus and Irinotecan in Mouse Xenograft Models of Colorectal Cancer” (PLoS ONE, 2013)
Read-outs that look alike come from different tables or passages of the source.

Legend:
[1] = everolimus, humans; cited from earlier work
[2] = everolimus, mice; cited from earlier work
HCT116 tumor xenografts = test system: HCT116 tumor xenografts; set-up: method as in PMID 19223496, PMID 20124452; settings: everolimus at 10–12 mg/kg, mice bearing HCT116 tumor xenografts; cited from earlier work
HCT116 tumors = test: NMR-based metabolomics of HCT116 tumors; format: in vivo, mice; settings: end of study
Method: (§1) When HT29 and HCT116 tumors reached an average volume of ∼325 mm^3 animals were randomized into four treatment groups (n = 9–10 mice per group): (i) vehicles, (ii) 5 mg/kg everolimus (RAD) by oral gavage (PO) daily, (iii) 10 mg/kg irinotecan (IRI) once weekly by intravenous (iv) tail vein injection, and (iv) a combination of RAD and IRI. Everolimus, diluted in sterile water, and irinotecan, diluted in sterile 0.9% saline, were administered at 4 mL/kg. Animals were treated for 28 days. Tumor volumes and body weights were measured 2–3 times weekly. On day 28 of treatment 3–6 animals per group were sacrificed, approximately 24 hours following everolimus treatment, and tumors harvested for metabolomic analysis.
For metabolomic analysis, animals were fasted for 4 hours then received 250 mg/kg of [1-^13C] glucose (Cambridge Isotopes, Cambridge, MA) by IV injection 60 minutes prior to tumor harvesting. Snap-frozen tumor specimens underwent two-phase acid extraction procedure (using 8% perchloric acid) previously established and extensively published [19]–[22]. Further details may also be found in Supplement S1 (section SA.2.).

HT29 cells = test: In vitro metabolomics, HT29 cells; format: cell-based; settings: 24 and 96 hours exposure to 30nM RAD001
Method: Metabolomics was performed in vitro on HCT116
(KRAS mt; PIK3CA mt) and HT29 (BRAF mt;
PIK3CA mt) cells after 0 (control), 24 and 96 hours exposure to 30nM RAD001. In both cell lines after 24 and 96 hours glucose uptake was reduced showing a decrease in proliferation. […]

HT29 tumor xenografts = test: Therapeutic study and tumor growth modeling, HT29 tumor xenografts; format: in vivo, mice
Method: For tumor bearing studies, cells were harvested and resuspended in a 1∶1 mixture of serum-free RPMI and Matrigel (BD Bioscience). One million cells were injected subcutaneously into each rear flank of mice. Tumor volumes, measured by digital calipers, were calculated by V (mm^3) = length x (width)^2 x 0.5236.
as §1
Data from the in vivo study was modeled to assess the therapeutic benefit of adding everolimus to irinotecan. The model used was similar to a previously published model for assessing combination therapy. Some modifications were made and details of the model can be found in Supplement S1 (section SA.3.) and Supplement S2. All modeling was performed on individual animal tumor volume data and modeled with SAAM II version 2.1. […]
are presented in Tables 1 and 2 in Supplement B. Individual fits of the model to the data can also be found in Supplement B. The average growth terms for each tumor type were then fixed at the average parameter value and used to determine the single agent effects (kx) of each compound by fitting the following equation: […] where cx(t) is the concentration of drug x with respect to time. Individual tumors were modeled and the average value of kx determined (Supplement B Tables 1 & 2) for each single agent treatment. This value was used to fit the following equation to the combination tumor growth data to determine the degree of interaction between the two drugs.
, the interaction term, was determined for each individual tumor for each tumor type and the data is presented in Table 2 in the main text and individual fits can be found in Supplement B.
We determined that values greater than 1.3 are synergistic, between 1.3 and 0.7 are additive, between 0.7 and 0 are less than additive, and negative values for are antagonistic. These ranges were selected based on the model fits. The CV% for the model fits ranged from 15 to 50 with an average CV% of approximately 30%. Therefore we assume an average variance of 30% making the additive range from 1.3 to 0.7 (1 + 30% and 1- 30%). […]

[3] = Simulation of everolimus plasma concentrations at 5 mg/kg (two-compartment model); set-up: species or system mice
Method: Plasma and tumor pharmacokinetic parameters were calculated by noncompartmental analysis with WinNonlin. Everolimus plasma data was fit to a two-compartment model with first-order absorption and simulations of plasma concentrations at a 5 mg/kg dose of everolimus were performed by SAAM II version 2.1 (The Epsilon Group, Charlottesville, VA/University of Washington).
Everolimus [nmol/g tissue] […]
Everolimus plasma (A) and tumor (B) pharmacokinetics were measured in nude mice bearing HT29 xenografts.
10 (●) mg/kg everolimus daily for 7 days prior to sample collection.
Data represents the average of 3 samples and the lines represent the data fits to a two-compartment model with first-order absorption. The parameter estimates from the fits to the 2.5 and 10 mg/kg data were then used to simulate the steady-state dosing of 5 mg/kg RAD001 (C).
Simulations were generated based on daily dosing. Additional details of the study can be found in the main text.
To simulate data at different concentrations between 2.5 and 10 mg/kg the following assumptions were made; (1) everolimus absorption and its’ elimination from the central compartment is constant across dose levels, and (2) the volume of the central compartment varies linearly between doses. We believe these assumptions are valid since the pharmacokinetics appeared to be linear between 2.5 and 10 mg/kg doses, and the model fits the measured data at 2.5 and 10 mg/kg doses well and agrees with pharmacokinetic parameters estimated by non-compartmental analysis (Table S1). […]

[4] = test system: VEGF and bFGF stimulated endothelial cells (HUVECs); set-up: method as in PMID 19223496; settings: read-out: IC50, anti-proliferative activity; cited from earlier work
[5] = everolimus 5 mg/kg dose in mice

CO[C@H]1C[C@@H]2CC[C@@H](C)[C@@](O)(O2)C(=O)C(=O)N2CCCC[C@H]2C(=O)O[C@H]([C@H](C)C[C@@H]2CC[C@@H](OCCO)[C@H](OC)C2)CC(=O)[C@H](C)/C=C(\C)[C@@H](O)[C@@H](OC)C(=O)[C@H](C)C[C@H](C)/C=C/C=C/C=C/1C [Everolimus, 40-O-(2-hydroxyethyl)-rapamycin]
plasma protein binding [1]: 75%
plasma protein binding [2]: 99%
tumor growth inhibition, single agent (HCT116 tumor xenografts): 45–55%
effects on glucose metabolism (HCT116 tumors): decrease in lactate and glycolysis
glucose uptake (HT29 cells): reduced
k2 (SD), single agent effect (HT29 tumor xenografts; HT29 (BRAF and PIK3CA mutant), RAD): 0.000263 (0.00015) mL/ng*day-1
average tumor growth inhibition, TGI (HT29 tumor xenografts; HT29 xenografts, 5 mg/kg everolimus PO daily, 10 mg/kg irinotecan iv once weekly, or combination, 28 days): 40%
AUCss,free ([3]; 5 mg/kg in mice, from simulated data): 37 ng·h/mL
average free concentration (Css,avg) [3, 5]: about 1.5 nM
free plasma concentration, Cmax [3, 5]: 6 nM
free plasma concentration, Cmin [3, 5]: 0.2 nM
IC50 [4]: 0.1 to 0.8 nM
